The target of one assay is CK1δ (Homo sapiens (Human), UniProt P48730). Put plainly: CK1δ kinase assay (Caliper LABCHIP electrophoretic separation of fluoresceinated peptide substrate and product). The assay is classed as biochemical. Conditions: 200 pM enzyme, 50 μM ATP, 22 hours at room temperature. Put shortly: (§1)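 Reactions ran 22 hours at room temperature and were stopped with EDTA. Phosphorylated product and unphosphorylated substrate were then separated electrophoretically. Compounds were tested at eleven concentrations, and IC50 values came from non-linear regression.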
Chain of CK1δ (P48730 whole entry): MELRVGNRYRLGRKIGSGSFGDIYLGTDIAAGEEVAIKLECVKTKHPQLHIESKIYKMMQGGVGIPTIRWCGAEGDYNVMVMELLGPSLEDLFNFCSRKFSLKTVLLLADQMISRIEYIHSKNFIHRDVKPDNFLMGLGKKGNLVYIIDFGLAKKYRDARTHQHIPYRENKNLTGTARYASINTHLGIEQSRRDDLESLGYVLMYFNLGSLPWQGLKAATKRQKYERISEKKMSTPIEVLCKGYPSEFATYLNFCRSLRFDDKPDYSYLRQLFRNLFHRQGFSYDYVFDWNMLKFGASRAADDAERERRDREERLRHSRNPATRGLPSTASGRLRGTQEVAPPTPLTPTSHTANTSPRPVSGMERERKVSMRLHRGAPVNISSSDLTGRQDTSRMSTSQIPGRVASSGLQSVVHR

For a further assay, the target named is CK1ε (Homo sapiens (Human), UniProt P49674). Description: CK1ε kinase assay (Caliper LABCHIP electrophoretic separation of fluoresceinated peptide substrate and product). The format is biochemical. The following applies: 200 pM enzyme, 50 μM ATP, 22 hours at room temperature. Summed up: as §1
Chain of CK1ε (P49674 whole entry): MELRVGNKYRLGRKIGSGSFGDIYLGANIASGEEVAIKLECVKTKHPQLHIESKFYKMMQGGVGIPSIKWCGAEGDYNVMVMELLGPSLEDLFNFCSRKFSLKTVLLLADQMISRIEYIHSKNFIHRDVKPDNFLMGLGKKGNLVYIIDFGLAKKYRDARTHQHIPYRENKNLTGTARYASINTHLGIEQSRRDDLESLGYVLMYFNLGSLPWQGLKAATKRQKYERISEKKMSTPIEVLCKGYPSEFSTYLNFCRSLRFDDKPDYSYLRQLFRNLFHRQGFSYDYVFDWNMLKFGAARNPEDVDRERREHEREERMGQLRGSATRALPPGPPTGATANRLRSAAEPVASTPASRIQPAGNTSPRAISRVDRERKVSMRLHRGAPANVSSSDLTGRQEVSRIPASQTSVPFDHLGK

Structures are written as SMILES. pIC50: −log10 of the molar value.

For `O=C(Nc1cn2nc(-c3c(-c4ccc(F)cc4)ncn3CC(=O)N3CCOCC3)ccc2n1)c1ccnc(F)c1` [Compound 266, 2-fluoro-N-(6-(4-(4-fluorophenyl)-1-(2-(4-morpholinyl)-2-oxoethyl)-1H-imidazol-5-yl)imidazo[1,2-b]pyridazin-2-yl)isonicotinamide], the values for the pIC50 at CK1δ and on CK1ε were 9.38 and 7.85, respectively.

Regarding `O=C1CN(CCn2cnc(-c3ccc(F)cc3)c2-c2ccc3nc(NC(=O)c4ccnc(F)c4)cn3n2)CCN1` [Compound 267, 2-fluoro-N-(6-(4-(4-fluorophenyl)-1-(2-(3-oxo-1-piperazinyl)ethyl)-1H-imidazol-5-yl)imidazo[1,2-b]pyridazin-2-yl)isonicotinamide], the results for the negative logarithm of the IC50 (pIC50) on CK1δ and against CK1ε were 9.54 and 8.75, respectively.

In the case of `NC(=O)Cn1cnc(-c2ccc(F)cc2)c1-c1ccc2nc(NC(=O)c3ccnc(F)c3)cn2n1` [Compound 268, N-(6-(1-(2-amino-2-oxoethyl)-4-(4-fluorophenyl)-1H-imidazol-5-yl)imidazo[1,2-b]pyridazin-2-yl)-2-fluoroisonicotinamide], the negative logarithm of the IC50 (pIC50) on CK1δ is 9.38; on CK1ε, 8.12.

`Cn1ccc(Cn2cnc(-c3ccc(F)cc3)c2-c2ccc3nc(NC(=O)c4ccnc(F)c4)cn3n2)n1` [Compound 269, 2-fluoro-N-(6-(4-(4-fluorophenyl)-1-((1-methyl-1H-pyrazol-3-yl)methyl)-1H-imidazol-5-yl)imidazo[1,2-b]pyridazin-2-yl) isonicotinamide]: the negative-log IC50 (pIC50) was 8.97 at CK1δ and 8.03 on CK1ε.

In the case of `O=C(Nc1cn2nc(-c3c(-c4ccc(F)cc4)ncn3Cc3cc(C4CC4)[nH]n3)ccc2n1)c1ccnc(F)c1` [Compound 270, N-(6-(1-((5-cyclopropyl-1H-pyrazol-3-yl)methyl)-4-(4-fluorophenyl)-1H-imidazol-5-yl)imidazo[1,2-b]pyridazin-2-yl)-2-fluoroiso-nicotinamide], the negative logarithm of the IC50 (pIC50) against CK1δ is 8.02; against CK1ε, 7.14.

As to `Cc1nccn1CCCn1cnc(-c2ccc(F)cc2)c1-c1ccc2nc(NC(=O)c3ccnc(F)c3)cn2n1` [Compound 271, 2-fluoro-N-(6-(4-(4-fluorophenyl)-1-(3-(2-methyl-1H-imidazol-1-yl)propyl)-1H-imidazol-5-yl)imidazo[1,2-b]pyridazin-2-yl) isonicotinamide], the figures for the pIC50 against CK1δ and against CK1ε were 9.05 and 8.22, respectively.

Consider `O=C(Nc1cn2nc(-c3c(-c4ccc(F)cc4)ncn3CCN3CCCC3=O)ccc2n1)c1ccnc(F)c1` [Compound 272, 2-fluoro-N-(6-(4-(4-fluorophenyl)-1-(2-(2-oxo-1-pyrrolidinyl)ethyl)-1H-imidazol-5-yl)imidazo[1,2-b]pyridazin-2-yl)isonicotinamide], for which the figures for the negative logarithm of the IC50 (pIC50) at CK1δ and against CK1ε were 8.78 and 7.78, respectively.

As for `CCCn1cnc(-c2ccc(F)cc2)c1-c1ccc2nc(NC(=O)C(C)(C)C)cn2n1` [Compound 273, N-(6-(4-(4-Fluorophenyl)-1-propyl-1H-imidazol-5-yl)imidazo[1,2-b]pyridazin-2-yl)pivalamide], the pIC50 is 9.59 against CK1δ and 9.00 at CK1ε.

As to `CC(C)(C)C(=O)Nc1cn2nc(-c3c(-c4ccc(F)cc4)ncn3CCO)ccc2n1` [Compound 274, N-(6-(4-(4-fluorophenyl)-1-(2-hydroxyethyl)-1H-imidazol-5-yl)imidazo[1,2-b]pyridazin-2-yl)pivalamide], the negative logarithm of the IC50 (pIC50) at CK1δ was 9.20; at CK1ε it was 8.05.

As to `CC(C)(C)C(=O)Nc1cn2nc(-c3c(-c4ccc(F)cc4)ncn3Cc3ccccc3)ccc2n1` [Compound 275, N-(6-(1-benzyl-4-(4-fluorophenyl)-1H-imidazol-5-yl)imidazo[1,2-b]pyridazin-2-yl)pivalamide], the pIC50 is 9.26 against CK1δ and 8.37 at CK1ε.

Turning to `CC(C)(C)C(=O)Nc1cn2nc(-c3[nH]cnc3-c3ccc(F)cc3)ccc2n1` [Compound 276, N-(6-(4-(4-fluorophenyl)-1H-imidazol-5-yl)imidazo[1,2-b]pyridazin-2-yl)pivalamide], the pIC50 on CK1δ was 8.41; on CK1ε it was 7.44.

On to `CC(C)(C)C(=O)Nc1cn2nc(-c3c(-c4ccc(F)cc4)ncn3CC3CNC(=O)C3)ccc2n1` (stereo not drawn) [Compound 277, N-(6-(4-(4-fluorophenyl)-1-((5-oxo-pyrrolidin-3-yl)methyl)-1H-imidazol-5-yl)imidazo[1,2-b]pyridazin-2-yl)pivalamide], for which the values for the pIC50 on CK1δ and on CK1ε were 9.62 and 8.42, respectively.

`Cc1cc(Cn2cnc(-c3ccc(F)cc3)c2-c2ccc3nc(NC(=O)C(C)(C)C)cn3n2)no1` [Compound 278, N-(6-(4-(4-fluorophenyl)-1-((5-methyl-isoxazol-3-yl)ylmethyl)-1H-imidazol-5-yl)imidazo[1,2-b]pyridazin-2-yl)pivalamide]: the pIC50 at CK1δ was 9.35; on CK1ε, 8.27.

On to `CC(C)(C)C(=O)Nc1cn2nc(-c3c(-c4ccc(F)cc4)ncn3Cc3ccoc3)ccc2n1` [Compound 279, N-(6-(4-(4-fluorophenyl)-1-(furan-3-ylmethyl)-1H-imidazol-5-yl)imidazo[1,2-b]pyridazin-2-yl)pivalamide], for which the pIC50 was 9.77 on CK1δ and 9.05 at CK1ε.

Turning to `COCCn1cnc(-c2ccc(F)cc2)c1-c1ccc2nc(NC(=O)C(C)(C)C)cn2n1` [Compound 280, N-(6-(4-(4-fluorophenyl)-1-(2-methoxy-ethyl)-1H-imidazol-5-yl)imidazo[1,2-b]pyridazin-2-yl)pivalamide], the pIC50 was 9.28 at CK1δ and 8.60 at CK1ε.

Regarding `CC(C)(C)C(=O)Nc1cn2nc(-c3c(-c4ccc(F)cc4)ncn3Cc3cccnc3)ccc2n1` [Compound 281, N-(6-(4-(4-fluorophenyl)-1-(pyridin-3-ylmethyl)-1H-imidazol-5-yl)imidazo[1,2-b]pyridazin-2-yl)pivalamide], the negative-log IC50 (pIC50) is 8.74 against CK1δ and 8.11 at CK1ε.

In the case of `CC(C)(C)C(=O)Nc1cn2nc(-c3c(-c4ccc(F)cc4)ncn3CCc3cccnc3)ccc2n1` [Compound 282, N-(6-(4-(4-fluorophenyl)-1-(2-(pyridin-3-yl)ethyl)-1H-imidazol-5-yl)imidazo[1,2-b]pyridazin-2-yl)pivalamide], the negative-log IC50 (pIC50) was 9.12 against CK1δ and 7.88 on CK1ε.

For `Cn1cnc(-c2ccc(F)cc2)c1-c1ccc2nc(NC(=O)C(C)(C)C)cn2n1` [Compound 283, N-(6-(4-(4-fluorophenyl)-1-methyl-1H-imidazol-5-yl)imidazo[1,2-b]pyridazin-2-yl)pivalamide], the negative logarithm of the IC50 (pIC50) on CK1δ was 9.26; against CK1ε it was 8.12.

On to `Cc1nc(-c2ccc(F)cc2)c(-c2ccc3nc(NC(=O)c4ccnc(F)c4)cn3n2)n1CC(F)F` [Compound 284, N-(6-(1-(2,2-Difluoroethyl)-4-(4-fluorophenyl)-2-methyl-1H-imidazol-5-yl)imidazo[1,2b]-pyridazin-2-yl)-2-fluoroisonicotinamide], for which the negative logarithm of the IC50 (pIC50) against CK1δ was 9.42; against CK1ε, 8.69.

Consider `O=C(Nc1cn2nc(-c3c(-c4ccc(F)cc4)nc(C4CC4)n3CC(F)F)ccc2n1)c1ccnc(F)c1` [Compound 285], for which the negative-log IC50 (pIC50) at CK1δ is 9.61; against CK1ε, 8.91.

Turning to `CCc1nc(-c2ccc(F)cc2)c(-c2ccc3nc(NC(=O)c4ccnc(F)c4)cn3n2)n1CC(F)F` [Compound 286, N-(6-(1-(2,2-difluoroethyl)-2-ethyl-4-(4-fluorophenyl)-1H-imidazol-5-yl)imidazo[1,2-b]pyridazin-2-yl)-2-fluoroisonicotinamide], the figures for the negative logarithm of the IC50 (pIC50) at CK1δ and against CK1ε were 9.14 and 8.17, respectively.

As to `CC(C)c1nc(-c2ccc(F)cc2)c(-c2ccc3nc(NC(=O)c4ccnc(F)c4)cn3n2)n1CC(F)F` [Compound 287, N-(6-(1-(2,2-difluoroethyl)-4-(4-fluorophenyl)-2-isopropyl-1H-imidazol-5-yl)imidazo[1,2-b]pyridazin-2-yl)-2-fluoroiso-nicotinamide], the pIC50 against CK1δ was 9.11; against CK1ε it was 8.04.

Consider `Cc1nc(-c2ccc(F)cc2)c(-c2ccc3nc(NC(=O)c4ccnc(F)c4)cn3n2)n1CCF` [Compound 288, 2-Fluoro-N-(6-(1-(2-fluoroethyl)-4-(4-fluorophenyl)-2-methyl-1H-imidazol-5-yl)imidazo[1,2-b]pyridazin-2-yl)isonicotinamide], for which the pIC50 is 9.96 against CK1δ and 9.65 against CK1ε.

Turning to `Cc1nc(-c2ccc(F)cc2)c(-c2ccc3nc(NC(=O)c4ccnc(F)c4)cn3n2)n1CC(F)(F)F` [Compound 289, 2-fluoro-N-(6-(4-(4-fluorophenyl)-2-methyl-1-(2,2,2-trifluoroethyl)-1H-imidazol-5-yl)imidazo[1,2-b]pyridazin-2-yl)isonicotinamide], the results for the negative-log IC50 (pIC50) against CK1δ and against CK1ε were 9.21 and 8.90, respectively.

In the case of `Cc1nc(-c2ccc(F)c(F)c2)c(-c2ccc3nc(NC(=O)c4ccnc(F)c4)cn3n2)n1CCF` [Compound 290, N-(6-(4-(3,4-difluorophenyl)-1-(2-fluoroethyl)-2-methyl-1H-imidazol-5-yl)imidazo[1,2-b]pyridazin-2-yl)-2-fluoroisonicotinamide], the pIC50 against CK1δ was 9.39; at CK1ε it was 8.72.

Consider `Cc1nc(-c2ccc(F)c(F)c2)c(-c2ccc3nc(NC(=O)c4ccnc(F)c4)cn3n2)n1CC(F)F` [Compound 291, N-(6-(1-(2,2-difluoroethyl)-4-(3,4-difluorophenyl)-2-methyl-1H-imidazol-5-yl)imidazo[1,2-b]pyridazin-2-yl)-2-fluoroiso-nicotinamide], for which the pIC50 is 9.41 against CK1δ and 8.58 on CK1ε.

Take `CCn1c(C)nc(-c2ccc(Cl)cc2)c1-c1ccc2nc(NC(=O)c3ccnc(F)c3)cn2n1` [Compound 292, N-(6-(4-(4-chlorophenyl)-1-ethyl-2-methyl-1H-imidazol-5-yl)imidazo[1,2-b]pyridazin-2-yl)-2-fluoroisonicotinamide]: the negative-log IC50 (pIC50) against CK1δ was 9.68; on CK1ε it was 8.74.

The values are drawn from patent US9556179B2 (BRISTOL-MYERS SQUIBB COMPANY, priority 2012, dated 2017).
